Columns and labels:
[1] = test system: MDA-MB-231 cells; experiment: Matrigel invasion assay; format: cell-based; conditions: 24 h pretreatment, 20 h incubation
Description: To examine the anti-metastatic effect of compounds of the present technology, an invasion assay using Matrigel Invasion Chambers coated with Matrigel Matrix was performed. To perform the assays, MDA-MB-231 cells pretreated with compounds for 24 hours are added to the chambers and then incubated for 20 hours. Cells that remained on the upper surface of the chamber are completely removed with a cotton swab. Cells that emigrated or invaded through the membrane/Matrigel to the bottom of the chamber were fixed and stained with 0.2% crystal violet and photographed.

[2] = test system: pancreatic cancer cell line MIAPaCa-2; experiment: Cytotoxicity assay (WST-8), MIAPaCa-2; format: cell-based; conditions: Homo sapiens, MIA PaCa-2, 96 h incubation
Description: (§1) The cytotoxicity of various compounds of the present technology in several cancer cell lines (pancreatic cancer cell line MIAPaCa-2, triple-negative breast cancer cell line MDA-MB-231, and colon cancer cell lines HCT116, HCT116 β/W, and RKO) was assessed by a cytotoxicity assay. Cells were seeded in 96-well culture plates (3,000-5,000 cells/well) and treated with titrated compounds in triplicate. After 96 h incubation, cell growth medium was removed and proliferation reagent WST-8 (Sigma) was added to each well and incubated at 37° C. for 1-3 h. Absorbance was then measured with a plate reader at 450 nm with correction at 650 nm. The results were expressed as the percentage of absorbance of treated wells versus that of vehicle control. IC50, the drug concentration causing 50% growth inhibition, was calculated via sigmoid curve fitting using GraphPad Prism 5.0. The results for those compounds tested against MIAPaCa-2 and MDA-MB-231 are provided in Table 1; the results for those compounds tested against colon cancer cell lines HCT116, HCT116 β/W, and RKO are provided in Table 3.

[3] = target: Musashi 2 (Msi2) (Homo sapiens, UniProt Q96DH6); experiment: Msi2 FP assay; format: binding; conditions: cell marked (RRM1), read-out: Msi2 (Ki) (RRM1)
[4] = target: T1, full-length human HuR protein (Homo sapiens, UniProt Q15717); experiment: FP assay of HuR-Msi1 ARE binding inhibition; conditions: HuR-Msi1 ARE interaction; read-out: HuR Ki via FP assay
T1 construct: full-length human HuR protein was produced by the KU COBRE-PSF Protein Purification Group; made in house
Procedure, shortened: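 Fluorescence polarization competition using full-length human HuR protein and a 3′-fluorescein-labelled 16-nt Msi1 ARE RNA. A fluorescein-labelled degenerate 16-nt RNA served as negative control.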

[5] = test system: colon cancer cell line RKO; experiment: Cytotoxicity assay (WST-8), RKO; format: cell-based; conditions: 96 h incubation
Description: as §1

[6] = target: Msi1 (Homo sapiens, UniProt O43347); experiment: Msi1 FP assay; format: binding
Description: With the FP assay of HuR-Msi1ARE binding, the inhibition of the HuR-Msi1ARE interaction by various compounds of the present technology was assessed. Similar FP assays for Musashi 2 (Msi2) and for RNA-binding protein Lin-28 homolog B (LIN28B) were also performed on various compounds of the present technology. The results of such assays for HuR are provided in Table 1 alongside the compound structures as well as ID numbers for ease of reference; the results of such assays for Msi1, Msi2, and LIN28B are provided in Table 2.

[7] = test system: HuR targets in MDA-MB-231 cells; experiment: Western blot analysis of HuR targets and cell death markers; format: cell-based
Text: As HuR promotes stability of its target mRNAs, it is expected that HuR-inhibitors will block HuR function and shorten the half-life (t1/2) of target mRNAs. mRNA stability will be determined via quantitative real-time PCR (qRT-PCR) after co-treatment of compounds of the present technology and Actinomycin D (a transcription inhibitor). Because HuR also increases the translation of target mRNAs, the effect of compounds of the present technology on protein levels of HuR targets was probed by Western blot analysis.

[8] = test system: colon cancer cell line HCT116 β/W; experiment: Cytotoxicity assay (WST-8), HCT116 β/W; format: cell-based; conditions: Homo sapiens, HCT-116, 96 h incubation
Description: as §1

[9] = test system: colon cancer cell line SW480; experiment: Cytotoxicity assay (WST-8), SW480; format: cell-based; conditions: Homo sapiens, 96 h incubation
[10] = test system: triple-negative breast cancer cell line MDA-MB-231; experiment: Cytotoxicity assay (WST-8), MDA-MB-231; format: cell-based; conditions: Homo sapiens, 96 h incubation
Procedure, shortened: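 Cells (3,000-5,000/well) were treated in triplicate with titrated compounds for 96 h, then WST-8 was added for 1-3 h at 37° C and absorbance read at 450 nm (650 nm correction). IC50 (50% growth inhibition vs vehicle) came from sigmoid curve fitting.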

[11] = target: T2, RNA-binding protein Lin-28 homolog B (LIN28B) (Homo sapiens, UniProt Q6ZN17); experiment: LIN28B FP assay
T2 sequence (Q6ZN17 1-250): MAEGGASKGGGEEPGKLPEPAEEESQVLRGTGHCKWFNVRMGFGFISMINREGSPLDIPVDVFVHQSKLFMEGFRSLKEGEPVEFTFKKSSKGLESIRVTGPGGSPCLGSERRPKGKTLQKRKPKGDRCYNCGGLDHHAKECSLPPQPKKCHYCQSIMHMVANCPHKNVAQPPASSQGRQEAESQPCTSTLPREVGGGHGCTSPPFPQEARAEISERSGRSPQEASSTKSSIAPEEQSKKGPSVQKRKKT

[12] = test system: colon cancer cell line HCT116; experiment: Cytotoxicity assay (WST-8), HCT116; format: cell-based; conditions: Homo sapiens, HCT-116, 96 h incubation
Description: as §1

[13] = test system: MDA-MB-231 HuR knockout clones (HuR KO1 and HuR KO2); experiment: Cytotoxicity against HuR knockout clones of MDA-MB-231; format: cell-based; conditions: HuR KO1 and HuR KO2 vs MDA-MB-231 and sgControl
Description: as §1
The cytotoxicity of KH-39 and KH-58 against HuR knockout clones was probed by the same assay as described above. […]

[14] = target: T3, HuR protein bound to ARE^Msi1-Biotin (Homo sapiens, UniProt Q15717); experiment: RNA immunoprecipitation (RNA-IP) pull-down assay; format: cell-based; conditions: 10 μM
T3 construct: endogenous in cells; cytoplasmic lysate
Description: Pull-down Assay #1—RNA Immunoprecipitation (RNA-IP): Cells with HuR overexpression will be treated with compounds, then the cell cytoplasmic lysates were collected using NE-PER Nuclear and Cytoplasmic Extraction Kit (Thermo Scientific), and subsequently to the cell cytoplasmic lysates were added the biotinylated target ARE oligo from Msi1 mRNA (ARE^Msi1-Biotin). Following this, streptavidin beads were added to pull down HuR protein bound to ARE^Msi1-Biotin. Unlabeled target AREs used as positive control. Compounds of the present technology block the HuR pull-down by the biotinylated ARE oligo, illustrating inhibition of the HuR-mRNA interaction. For example, using 20 μM KH-39, 20 μM KH-56, and 10 μM KH-58 in such a RNA-IP assay provided the data illustrated in FIG. 5. The numbers immediately below the pictured bands in FIG. 5 are calculated by diving the band intensity of the particular sample by the band intensity of the DMSO treated sample (entry 3). […]

[15] = target: T4, HuR-bound target mRNAs in MDA-MB-231 cells (Homo sapiens, UniProt Q15717); experiment: Ribonucleoprotein immunoprecipitation (RNP-IP) pull-down assay; format: cell-based; conditions: 5 μM
T4 construct: endogenous in cells; host or cells: MDA-MB-231
Description: Pull-down Assay #2—Ribonuleoprotein Immunoprecipitation (RNP-IP): Cells with HuR overexpression were treated with compounds, then the cell cytoplasmic lysates collected using NE-PER Nuclear and Cytoplasmic Extraction Kit (Thermo Scientific), then the cell cytoplasmic lysates incubated with anti-HuR antibody, and subsequently Protein G agarose beads (from Roche) added to pull down HuR protein. The HuR-bound target mRNAs pulled down were measured by qRT-PCR using a reported method (Ji, Q., et al., MicroRNA miR-34 inhibits human pancreatic cancer tumor-initiating cells. PLoS One, 2009. 4(8): p. e6816, incorporated herein by reference). Mouse IgG will be used as negative control. Compounds of the present technology block the target mRNAs pulled down by HuR antibody.

[16] = test system: PC3 cells; experiment: mRNA level of HuR target Msi2 after docetaxel treatment; format: cell-based
Text: FIGS. 1A-F provide the results of studies illustrating RNA-binding protein Hu antigen R (HuR) is involved in chemo/radiation-induced tumor response. […] HuR knock-down by siRNA sensitized cancer cells to X-ray radiation, with an enhancement ratio (ER) of 1.5 versus the negative control (NC) siRNA (FIG. 1F).

[17] = test system: MDA-MB-231 mouse xenograft; experiment: MDA-MB-231 mouse xenograft model, KH-39 alone and with docetaxel; format: in vivo, mice; conditions: after three-week treatment; KH-39 i.p. 50 mg/kg 5 times per week; TXT i.v.; ***P<0.001, ****P<0.0001, n=12
Text: Cytotoxicity assays (as described earlier in this disclosure) for various cancer cell lines will also be performed utilizing concentrations of a compound of the present technology that are below the lethal threshold for the compound for the particular cancer (a “sub-lethal concentration”) in combination with a chemotherapeutic compound (e.g., docetaxel or doxorubicin) to illustrate compounds of the present technology sensitize cancer cell lines to chemotherapy. By way of illustration in an in vivo model, in vivo antitumor efficacy of KH-39 was examined in combination with docetaxel (a first-line chemotherapy for human breast cancer) in a MDA-MB-231 mouse xenograft model. For this, tumor-bearing female athymic mice were provided according to the protocols described earlier in the present disclosure and were randomized into four groups. One group of mice was treated with KH-39 (i.p. 50 mg/kg, 5 times per week), one group with docetaxel (TXT; i.v. at the dosages and time intervals indicated in FIG. 12), one group with a combination of KH-39 and TXT (KH-39 i.p. 50 mg/kg, 5 times per week and TXT i.v. at the dosages and time intervals indicated in FIG. 12), and one group of mice as the vehicle control. FIG. 12 illustrates the results, providing the tumor growth curves for each group.

T1 sequence (Q15717 whole entry): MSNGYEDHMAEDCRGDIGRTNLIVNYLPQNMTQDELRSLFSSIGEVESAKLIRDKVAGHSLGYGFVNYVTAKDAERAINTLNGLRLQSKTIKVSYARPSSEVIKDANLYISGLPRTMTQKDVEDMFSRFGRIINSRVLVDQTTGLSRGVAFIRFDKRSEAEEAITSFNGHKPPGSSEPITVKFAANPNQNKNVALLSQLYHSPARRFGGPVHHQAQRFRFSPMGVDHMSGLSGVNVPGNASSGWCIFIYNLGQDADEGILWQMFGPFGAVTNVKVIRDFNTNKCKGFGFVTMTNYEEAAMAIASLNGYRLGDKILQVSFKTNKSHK
Musashi 2 (Msi2), sequence (Q96DH6 whole entry, species assumed): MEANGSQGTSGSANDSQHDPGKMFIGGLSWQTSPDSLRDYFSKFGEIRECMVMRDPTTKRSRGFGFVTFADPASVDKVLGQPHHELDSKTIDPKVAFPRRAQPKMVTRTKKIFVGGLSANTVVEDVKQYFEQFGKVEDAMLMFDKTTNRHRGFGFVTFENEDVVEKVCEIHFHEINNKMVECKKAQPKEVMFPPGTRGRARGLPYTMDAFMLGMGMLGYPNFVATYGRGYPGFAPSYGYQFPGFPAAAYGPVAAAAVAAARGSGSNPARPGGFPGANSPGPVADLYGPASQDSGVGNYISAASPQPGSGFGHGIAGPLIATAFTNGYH
T4 sequence (Q15717 2-326 limits assumed): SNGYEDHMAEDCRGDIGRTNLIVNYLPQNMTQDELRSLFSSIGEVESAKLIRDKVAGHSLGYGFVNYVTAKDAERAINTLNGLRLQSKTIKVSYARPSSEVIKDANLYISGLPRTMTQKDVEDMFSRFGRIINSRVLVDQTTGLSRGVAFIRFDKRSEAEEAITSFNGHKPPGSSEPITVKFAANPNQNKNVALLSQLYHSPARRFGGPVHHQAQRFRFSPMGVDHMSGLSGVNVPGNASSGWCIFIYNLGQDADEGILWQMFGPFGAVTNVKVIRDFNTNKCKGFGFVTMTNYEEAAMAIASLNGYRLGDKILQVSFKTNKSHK
T3 sequence (Q15717 2-326 limits assumed): as above
Msi1, sequence (O43347 whole entry, species assumed): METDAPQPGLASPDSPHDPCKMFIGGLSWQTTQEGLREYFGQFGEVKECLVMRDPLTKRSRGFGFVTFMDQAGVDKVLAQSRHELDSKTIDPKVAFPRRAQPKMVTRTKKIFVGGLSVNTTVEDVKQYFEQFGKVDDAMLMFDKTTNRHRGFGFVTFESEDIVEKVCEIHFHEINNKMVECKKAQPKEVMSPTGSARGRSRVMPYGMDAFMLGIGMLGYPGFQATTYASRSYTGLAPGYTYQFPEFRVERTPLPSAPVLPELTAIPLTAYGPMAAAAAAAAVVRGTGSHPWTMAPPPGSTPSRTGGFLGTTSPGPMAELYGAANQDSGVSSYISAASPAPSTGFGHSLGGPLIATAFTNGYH

SMILES	MDA-MB-231 cell invasion ([1]; concentrations indicated in FIG. 8)	IC50 [2] [nM]	Ki [3] [nM]	Ki [4] [nM]	IC50 [5] [nM]	Ki [6] [nM]	cell death mechanisms: PARP cleavage, LC3 conversion, RIP3 activation [7]	protein levels of HuR targets [7]	IC50 [8] [nM]	IC50 [9] [nM]	IC50 [10] [nM]	Ki [11] [nM]	IC50 [12] [nM]	IC50 of HuR KO clones versus parental cells and vector control cells [13]	MDA-MB-231 cell invasion ([1]; 5 μM)	ARE^Msi1-Biotin mediated pull-down of HuR protein [14]	HuR pull-down of target mRNAs [15]	mRNA levels of HuR target Musashi 2 (Msi2) [16]	relative tumor sizes versus control group [17]
CC(C)(C)c1ccc(C(=O)Nc2ccc3sc(/C=C/C(=O)NO)cc3c2)cc1 [KH-19, (E)-4-(tert-butyl)-N-(2-(3-(hydroxyamino)-3-oxoprop-1-en-1-yl)benzo[b]thiophen-5-yl)benzamide]	inhibited MDA-MB-231 cell invasion	2340	450	150	4480	1970	induced cell death through apoptosis, autophagy and necroptosis	decreased the protein levels of HuR targets	2630	5140	1330	3200	2220	–	–	–	–	–	–
CN(C)c1ccc(C(=O)Nc2ccc3sc(C(=O)NO)cc3c2)cc1 [KH-58, 5-(4-(dimethylamino)benzamido)-N-hydroxybenzo[b]thiophene-2-carboxamide]	–	–	3350	610	–	–	–	–	–	–	1310	4570	–	two to three folds higher IC50 values	clearly inhibited MDA-MB-231 cell invasion	block ARE^Msi1-Biotin mediated pull-down of HuR protein	at least partially block HuR pull-down of target mRNAs	–	–
CC(=O)O[C@@]12CO[C@@H]1C[C@H](O)[C@@]1(C)C(=O)[C@H](O)C3=C(C)[C@@H](OC(=O)[C@H](O)[C@@H](NC(=O)OC(C)(C)C)c4ccccc4)C[C@@](O)([C@@H](OC(=O)c4ccccc4)[C@H]21)C3(C)C [docetaxel, reference compound]	–	–	–	–	–	–	–	–	–	–	–	–	–	–	–	–	–	increased the mRNA levels of HuR target Musashi 2 (Msi2)	significantly smaller than those in control group

Reference: patent US20220213052A1, “INHIBITORS OF RNA-BINDING PROTEINS, COMPOSITIONS THEREOF, AND THERAPEUTIC USES THEROF” (The University of North Carolina at Chapel Hill, priority 2019, published 2022)
